The term IC50 denotes the concentration that inhibits the measured activity by half.

For 16 compounds, Ki and IC50 results are on record in patent US20250388544A1, “HETEROAROMATIC INHIBITORS OF ASTACIN PROTEINASES” (VIVORYON THERAPEUTICS N.V., priority 2019, published 2025).

The target in one assay is T1, hMeprin α (Homo sapiens, UniProt Q16819).
T1 sequence (Q16819 66-746): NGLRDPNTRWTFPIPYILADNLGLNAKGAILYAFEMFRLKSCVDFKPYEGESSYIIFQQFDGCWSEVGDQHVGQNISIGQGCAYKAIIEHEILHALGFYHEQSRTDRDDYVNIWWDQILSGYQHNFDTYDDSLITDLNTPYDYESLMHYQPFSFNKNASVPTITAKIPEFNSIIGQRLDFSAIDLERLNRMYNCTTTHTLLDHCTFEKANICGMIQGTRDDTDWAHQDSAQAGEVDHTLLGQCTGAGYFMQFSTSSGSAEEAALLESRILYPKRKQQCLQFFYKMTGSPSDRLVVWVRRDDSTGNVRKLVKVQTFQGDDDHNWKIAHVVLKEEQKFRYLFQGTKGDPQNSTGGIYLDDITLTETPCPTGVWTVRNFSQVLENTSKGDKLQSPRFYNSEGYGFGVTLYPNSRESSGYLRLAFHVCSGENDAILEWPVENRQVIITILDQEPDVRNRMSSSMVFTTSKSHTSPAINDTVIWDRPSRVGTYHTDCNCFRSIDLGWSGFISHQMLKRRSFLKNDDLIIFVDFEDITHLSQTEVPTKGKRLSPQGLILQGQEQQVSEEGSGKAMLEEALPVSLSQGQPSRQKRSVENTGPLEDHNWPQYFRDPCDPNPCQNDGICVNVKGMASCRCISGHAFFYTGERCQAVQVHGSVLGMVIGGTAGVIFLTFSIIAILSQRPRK
The assay can be described thus: Enzymatic assay, quenched peptide substrate cleavage, method B. Type of assay: biochemical. As to conditions: geometric mean (geometric SD factor in parentheses); for Ki: Morrison's equation, read-out: Meprin alpha Ki(app); for IC50: read-out: Meprin alpha IC50. On the procedure: (§1) The determination of enzymatic activity was based on the cleavage of internally quenched peptide substrates. A typical assay of 250 μl total volume measured in black 96 well plates consisted of 100 μl buffer, 50 μl enzyme at a final concentration of 5e-8 M to 2e-10 M, 50 μl substrate (0.15 to 80 μM, in buffer, 0.5% DMSO) and 50 μl inhibitor solution (in buffer, 1% DMSO). In case of 125 μl assay volume (black 96 half area well plates) all volumes were cut in half. Enzymatic activity of ADAMs was measured in 384 well plates with 60 μl total assay volume consisting of 20 μl inhibitor, 20 μl buffer, 10 μl enzyme and 10 μl substrate.
(§2) Based on method B Ki^(app) values were determined using Morrison's equation. All measurements were performed using a fluorescence plate reader (FLUOSTAR OPTIMA, BMG Labtech) at 30° C. The kinetic parameters were determined at least in duplicates on separate days. The excitation/emission wavelength was 340/420 nm. The kinetic data was evaluated using GRAFIT software (version 7.0.3, Erithacus Software).

Another assay addresses T2, hMeprin β (Homo sapiens, UniProt Q16820).
T2 sequence (Q16820 62-701): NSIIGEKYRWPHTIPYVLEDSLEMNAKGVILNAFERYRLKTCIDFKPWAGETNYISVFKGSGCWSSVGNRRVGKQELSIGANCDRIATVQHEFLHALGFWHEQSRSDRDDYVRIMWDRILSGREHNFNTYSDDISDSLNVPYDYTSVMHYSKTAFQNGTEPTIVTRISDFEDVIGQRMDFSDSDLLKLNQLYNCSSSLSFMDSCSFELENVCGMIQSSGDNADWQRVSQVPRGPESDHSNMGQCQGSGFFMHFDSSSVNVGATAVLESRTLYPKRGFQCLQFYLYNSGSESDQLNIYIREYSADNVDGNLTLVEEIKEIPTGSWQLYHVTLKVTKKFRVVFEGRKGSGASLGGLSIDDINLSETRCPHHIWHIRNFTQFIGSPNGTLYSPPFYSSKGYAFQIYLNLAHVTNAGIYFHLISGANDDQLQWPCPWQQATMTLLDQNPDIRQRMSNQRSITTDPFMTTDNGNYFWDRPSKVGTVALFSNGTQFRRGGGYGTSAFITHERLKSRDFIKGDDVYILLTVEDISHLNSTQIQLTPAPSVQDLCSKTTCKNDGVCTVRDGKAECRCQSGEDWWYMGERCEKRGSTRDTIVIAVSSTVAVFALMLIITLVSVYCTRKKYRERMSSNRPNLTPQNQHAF
The assay is described as above. Format: biochemical. The following applies: geometric mean (geometric SD factor in parentheses); for Ki: Morrison's equation, read-out: Meprin beta Ki(app); for IC50: read-out: Meprin beta IC50. On the procedure: as §1, §2

On to `O=C(Cc1c(-c2ccc3c(c2)OCO3)n[nH]c1-c1ccc(C(=O)O)cc1)NO` [Example 62, 4-[3-(1,3-Benzodioxol-5-yl)-4-[2-(hydroxyamino)-2-oxo-ethyl]-1H-pyrazol-5-yl)benzoic acid], for which the Ki at hMeprin α came out at 0.01 µM; at hMeprin β, 0.093 µM. Besides, the IC50 turned out to be 0.011 µM on hMeprin α and 0.094 µM on hMeprin β.
For `O=C(Cc1c(-c2cccc(C(=O)O)c2)n[nH]c1-c1cc(F)c(O)c(Cl)c1)NO` [Example 64, 3-[5-(3-Chloro-5-fluoro-4-hydroxy-phenyl)-4-[2-(hydroxyamino)-2-oxo-ethyl]-1H-pyrazol-3-yl]benzoic acid] the same measures were 0.00014 µM, 0.00024 µM, 0.00024 µM and 0.00026 µM.
For the compound `O=C(Cc1c(-c2ccc(C(=O)O)cc2)n[nH]c1-c1ccc(Cl)c(O)c1F)NO` [Example 65, 4-[5-(4-Chloro-2-fluoro-3-hydroxy-phenyl)-4-[2-(hydroxyamino)-2-oxo-ethyl]-1H-pyrazol-3-yl]benzoic acid], on hMeprin α, the Ki stood at 0.01 µM and the IC50 was determined as 0.01 µM. Further, at hMeprin β, the Ki was determined as 0.011 µM and the IC50 amounted to 0.012 µM.
On to `O=C(Cc1c(-c2ccc(C(=O)O)cc2)n[nH]c1-c1cccc(C(=O)O)c1)NO` [Example 66, 3-[3-(4-Carboxyphenyl)-4-[2-(hydroxyamino)-2-oxo-ethyl]-1H-pyrazol-5-yl]benzoic acid], for which, on hMeprin α, the Ki was 0.02 µM and the half-inhibitory concentration (IC50) stood at 0.021 µM. Moreover, on hMeprin β, the Ki was determined as 0.032 µM and the IC50 is 0.032 µM.
As to `O=C(NO)C1c2ccccc2-c2[nH]nc(-c3ccccc3)c21` (stereo not shown) [Example 67, 3-Phenyl-1,4-dihydroindeno[1,2-c]pyrazole-4-carbohydroxamic acid], on hMeprin α, the Ki was found to be 0.039 µM and the IC50 is 0.04 µM. For the same compound, on hMeprin β, the Ki stood at 1.68 µM and the IC50 was found to be 1.79 µM.
Taken in the same sequence, the figures for `O=C(NO)C1Cc2ccccc2-c2[nH]nc(-c3ccccc3)c21` (stereo not shown) [Example 68, 3-Phenyl-4,5-dihydro-1H-benzo[g]indazole-4-carbohydroxamic acid] were 0.061 µM, 0.062 µM, 2.53 µM and 2.6 µM.
As to `O=C(Cc1c(-c2cc(O)no2)n[nH]c1-c1ccccc1)NO` [Example 69, 2-[3-(3-Hydroxyisoxazol-5-yl)-5-phenyl-1H-pyrazol-4-yl]ethanehydroxamic acid], the Ki amounted to 0.016 µM on hMeprin α and 0.014 µM on hMeprin β. The IC50 was determined as 0.017 µM at hMeprin α and 0.014 µM at hMeprin β.
As for `O=C(Cc1c(-c2c[nH]nc2C(F)(F)F)n[nH]c1-c1ccccc1)NO` [Example 70, 2-[5-Phenyl-3-[3-(trifluoromethyl)-1H-pyrazol-4-yl]-1H-pyrazol-4-yl]ethanehydroxamic acid], at hMeprin α, the Ki turned out to be 0.002 µM and the IC50 turned out to be 0.002 µM. Also, at hMeprin β, the Ki worked out at 0.088 µM and the IC50 turned out to be 0.089 µM.
For the compound `O=C(Cc1c(-c2cccc(-c3nnn[nH]3)c2)n[nH]c1-c1ccccc1)NO` [Example 71, 2-[5-Phenyl-3-[3-(1H-tetrazol-5-yl)phenyl]-1H-pyrazol-4-yl]ethanehydroxamic acid], at hMeprin α, the Ki came to 0.00071 µM and the IC50 was determined as 0.00071 µM. Further, on hMeprin β, the Ki stood at 0.007 µM and the IC50 worked out at 0.007 µM.
Regarding `O=C(CCc1c(-c2ccccc2)nn(Cc2ccc(Cl)c(O)c2F)c1-c1ccccc1)NO` [Example 72, 3-[1-[(4-chloro-2-fluoro-3-hydroxy-phenyl)methyl]-3,5-diphenyl-pyrazol-4-yl]propanehydroxamic acid], the Ki worked out at 0.00015 µM on hMeprin α and 1.18 µM at hMeprin β. Besides, the IC50 was 0.00022 µM at hMeprin α and 1.21 µM at hMeprin β.
For `O=C(Cc1c([C@@H]2CCCC[C@@H]2C(=O)O)n[nH]c1-c1ccccc1)NO` [Example 73, (1S,2R)-2-[4-[2-(Hydroxyamino)-2-oxoethyl]-5-phenyl-1H-pyrazol-3-yl]cyclohexanecarboxylic acid] the same measures were 0.00026 µM, 0.033 µM, 0.00034 µM and 0.033 µM.
As to `O=C(Cc1c(C2CCCC(C(=O)O)C2)n[nH]c1-c1ccccc1)NO` (stereo not shown) [Example 74, 3-[4-[2-(Hydroxyamino)-2-oxo-ethyl]-5-phenyl-1H-pyrazol-3-yl]cyclohexanecarboxylic acid], the Ki at hMeprin α is 0.001 µM; on hMeprin β it was 0.055 µM. The IC50 at hMeprin α stood at 0.001 µM; at hMeprin β it was 0.055 µM.
With `O=C(Cc1c(-c2ccccc2)[nH]nc1[C@H]1CC[C@@H](C(=O)O)CC1)NO` [Example 75, cis-4-[4-[2-(Hydroxyamino)-2-oxo-ethyl)-5-phenyl-1H-pyrazol-3-yl]cyclohexanecarboxylic acid], at hMeprin α, the Ki stood at 0.01 µM and the IC50 amounted to 0.01 µM. For the same compound, on hMeprin β, the Ki was 0.035 µM and the IC50 is 0.035 µM.
Turning to `O=C(Cc1c(-c2ccccc2)[nH]nc1[C@H]1CC[C@H](C(=O)O)CC1)NO` [Example 76, trans-4-[4-[2-(Hydroxyamino)-2-oxo-ethyl]-5-phenyl-1H-pyrazol-3-yl]cyclohexanecarboxylic acid], on hMeprin α, the Ki turned out to be 0.012 µM and the IC50 stood at 0.012 µM. Moreover, on hMeprin β, the Ki worked out at 0.098 µM and the IC50 is 0.098 µM.
In the case of `O=C(Cc1c(-c2cccc(C(=O)O)c2)[nH]nc1[C@H]1CC[C@@H](C(=O)O)CC1)NO` [Example 77, cis-3-[3-(4-carboxycyclohexyl)-4-[2-(hydroxyamino)-2-oxo-ethyl]-1H-pyrazol-5-yl]benzoic acid], at hMeprin α, the Ki came out at 0.023 µM and the IC50 was 0.024 µM. Besides, on hMeprin β, the Ki came out at 0.015 µM and the IC50 came out at 0.015 µM.
On to `O=C(Cc1c(-c2cccc(C(=O)O)c2)[nH]nc1[C@H]1CC[C@H](C(=O)O)CC1)NO` [Example 78, trans-3-[3-(4-Carboxycyclohexyl)-4-[2-(hydroxyamino)-2-oxo-ethyl]-1H-pyrazol-5-yl]benzoic acid], for which the Ki at hMeprin α came out at 0.02 µM; at hMeprin β, 0.021 µM. In addition, the IC50 at hMeprin α turned out to be 0.02 µM; at hMeprin β, 0.021 µM.
